Results taken from PMC4821887, “Identification of chemicals that mimic transcriptional changes associated with autism, brain aging and neurodegeneration” (Nature Communications, 2016).

Test system: mouse cortical cultures
Assay: RNA-seq differential expression (DESeq) against matched vehicle
Type: cell-based
Parameters: key to MeanFenamidone Bcl11b / MeanFenamidone Slc12a4 / MeanFenamidone Abca1 / MeanFenamidone Hmox1 / MeanFenamidone Il1rap / MeanFenamidone Cyba / MeanFenamidone Narf / MeanFenamidone Bnip3 / MeanFenamidone Amotl2 / MeanFenamidone Gad2 / MeanFenamidone Vsnl1 / MeanFenamidone Fam178a: DESeq mean of counts over RefSeq exons
Protocol: Figure 4 Cluster 2 chemicals alter expression of a common set of genes. […] RNA-seq was performed in quadruplicate after treating cortical cultures with fenamidone (10 μM) or pyraclostrobin (0.1 μM) for 24 h (n=3 biological replicates) and compared with matched vehicle controls using DESeq to detect differentially expressed genes, listed in Supplementary Data 4.
Cultures were treated with the non-cytotoxic dose of each chemical, by exchanging half of the original medium with chemicals at 2 × concentration in prewarmed feeding medium, on DIV 7 for 24 h in 12-well plates at a density of 5 × 10^5 cells per well. RNA was isolated using RNeasy plus mini kit (Cat. #74134, Qiagen). […]. Samples were further assessed for quality using either an Agilent Bioanalyzer 2100 or TapeStation 2200 to obtain a RIN. RIN values exceeding 7 were used for sequencing. RNA samples were used to generate and barcode complementary DNA libraries using the TruSeq RNA Library Preparation Kit at the UNC High Throughput Sequencing Facility. Pools of 24 multiplexed samples were sequenced per lane on an Illumina HiSeq 2500 using 50-bp paired-end reads.
RNA-seq reads were filtered using TagDust and aligned to the reference mouse genome (mm9) with TopHat using default parameters. Reads aligning to ribosomal RNA genes were removed. Transcript abundance was estimated by computing Reads per kilobase per million mapped reads (RPKM) using RefSeq gene models aggregated by gene symbol. For differential expression analyses, raw counts over RefSeq exons were used, and then were compared across samples using DESeq[62].

## CSC1=N[C@@](C)(c2ccccc2)C(=O)N1Nc1ccccc1 [fenamidone]
Gene Dclk1
  MeanFenamidone: 2436.98
  log2FoldChange: -1.095
Gene Dcxr
  MeanFenamidone: 235.507
  log2FoldChange: 3.058
Gene Diras1
  MeanFenamidone: 170.873
  log2FoldChange: -1.25
Gene Dlg2
  MeanFenamidone: 695.294
  log2FoldChange: -1.3121
Gene Dlx1as, DESeq mean, 4 reps
  MeanFenamidone Dlx1as: 22.8822
Gene Dlx1as, vs vehicle, 4 reps
  log2FoldChange Dlx1as: -2.397
Gene Dnaja1
  MeanFenamidone: 313.407
  log2FoldChange: -1.061
Gene Dnm3, DESeq mean, 4 reps
  MeanFenamidone Dnm3: 187.1
Gene Dnm3, vs vehicle, 4 reps
  log2FoldChange Dnm3: -1.706
Gene Dpp10, DESeq mean, 4 reps
  MeanFenamidone Dpp10: 62.8613
Gene Dpp10, vs vehicle, 4 reps
  log2FoldChange Dpp10: -1.776
Gene Dzank1, DESeq mean, 4 reps
  MeanFenamidone Dzank1: 112.179
Gene Dzank1, vs vehicle, 4 reps
  log2FoldChange Dzank1: -1.428
Gene Eda2r, DESeq mean, 4 reps
  MeanFenamidone Eda2r: 436.944
Gene Eda2r, vs vehicle, 4 reps
  log2FoldChange Eda2r: 1.783
Gene Efemp1, DESeq mean, 4 reps
  MeanFenamidone Efemp1: 94.4395
Gene Efemp1, vs vehicle, 4 reps
  log2FoldChange Efemp1: 2.414
Gene Egfr
  MeanFenamidone: 148.93
  log2FoldChange: 1.836
Gene Eif4ebp1, DESeq mean, 4 reps
  MeanFenamidone Eif4ebp1: 125.436
Gene Eif4ebp1, vs vehicle, 4 reps
  log2FoldChange Eif4ebp1: 2.511
Gene Elavl2, DESeq mean, 4 reps
  MeanFenamidone Elavl2: 207.006
Gene Elavl2, vs vehicle, 4 reps
  log2FoldChange Elavl2: -1.527
Gene Elovl1, DESeq mean, 4 reps
  MeanFenamidone Elovl1: 104.754
Gene Elovl1, vs vehicle, 4 reps
  log2FoldChange Elovl1: 2.586
Gene Enox1
  MeanFenamidone: 25.4463
  log2FoldChange: -1.757
Gene Epas1
  MeanFenamidone: 154.593
  log2FoldChange: 2.42
Gene Ephx1, DESeq mean, 4 reps
  MeanFenamidone Ephx1: 789.724
Gene Ephx1, vs vehicle, 4 reps
  log2FoldChange Ephx1: 1.959
Gene Epm2aip1
  MeanFenamidone: 711.569
  log2FoldChange: -0.9776
Gene Etfb
  MeanFenamidone: 102.831
  log2FoldChange: 1.903
Gene Evc
  MeanFenamidone: 45.1413
  log2FoldChange: 1.984
Gene F2r, DESeq mean, 4 reps
  MeanFenamidone F2r: 1216.46
Gene F2r, vs vehicle, 4 reps
  log2FoldChange F2r: 2.012
Gene F3, DESeq mean, 4 reps
  MeanFenamidone F3: 324.561
Gene F3, vs vehicle, 4 reps
  log2FoldChange F3: 2.464
Gene Fam78b
  MeanFenamidone: 119.127
  log2FoldChange: -1.289
Gene Fam163b, DESeq mean, 4 reps
  MeanFenamidone Fam163b: 135.664
Gene Fam163b, vs vehicle, 4 reps
  log2FoldChange Fam163b: -1.491
Gene Fam178a, DESeq mean, 4 reps
  MeanFenamidone Fam178a: 780.387
Gene Fam178a, vs vehicle, 4 reps
  log2FoldChange Fam178a: 1.493
Gene Fat1, DESeq mean, 4 reps
  MeanFenamidone Fat1: 2188.76
Gene Fat1, vs vehicle, 4 reps
  log2FoldChange Fat1: 1.677
Gene Fbn1, DESeq mean, 4 reps
  MeanFenamidone Fbn1: 159.478
Gene Fbn1, vs vehicle, 4 reps
  log2FoldChange Fbn1: 2.303
Gene Fbxo9, DESeq mean, 4 reps
  MeanFenamidone Fbxo9: 32.2944
Gene Fbxo9, vs vehicle, 4 reps
  log2FoldChange Fbxo9: -2.181
Gene Fermt2, DESeq mean, 4 reps
  MeanFenamidone Fermt2: 437.255
Gene Fermt2, vs vehicle, 4 reps
  log2FoldChange Fermt2: 1.474
Gene Fgf13
  MeanFenamidone: 224.473
  log2FoldChange: -1.202
Gene Fgfr3, DESeq mean, 4 reps
  MeanFenamidone Fgfr3: 309.362
Gene Fgfr3, vs vehicle, 4 reps
  log2FoldChange Fgfr3: 1.548
Gene Fkbp9, DESeq mean, 4 reps
  MeanFenamidone Fkbp9: 763.489
Gene Fkbp9, vs vehicle, 4 reps
  log2FoldChange Fkbp9: 1.78
Gene Flna, DESeq mean, 4 reps
  MeanFenamidone Flna: 4335.97
Gene Flna, vs vehicle, 4 reps
  log2FoldChange Flna: 1.783
Gene Flnb, DESeq mean, 4 reps
  MeanFenamidone Flnb: 1183.24
Gene Flnb, vs vehicle, 4 reps
  log2FoldChange Flnb: 2.364
Gene Flnc, DESeq mean, 4 reps
  MeanFenamidone Flnc: 270.515
Gene Flnc, vs vehicle, 4 reps
  log2FoldChange Flnc: 3.121
Gene Fn1, DESeq mean, 4 reps
  MeanFenamidone Fn1: 2242.75
Gene Fn1, vs vehicle, 4 reps
  log2FoldChange Fn1: 2.874
Gene Fzd7
  MeanFenamidone: 201.665
  log2FoldChange: 1.705
Gene Gad1, DESeq mean, 4 reps
  MeanFenamidone Gad1: 102.047
Gene Gad1, vs vehicle, 4 reps
  log2FoldChange Gad1: -2.011
Gene Gad2, DESeq mean, 4 reps
  MeanFenamidone Gad2: 49.2241
Gene Gad2, vs vehicle, 4 reps
  log2FoldChange Gad2: -2.6503
Gene Gas6
  MeanFenamidone: 1188.11
  log2FoldChange: 1.393
Gene Gas7
  MeanFenamidone: 704.19
  log2FoldChange: -1.128
Gene Gdf15, DESeq mean, 4 reps
  MeanFenamidone Gdf15: 107.196
Gene Gdf15, vs vehicle, 4 reps
  log2FoldChange Gdf15: 3.431
Gene Glis2
  MeanFenamidone: 157.775
  log2FoldChange: 1.455
Gene Gls, DESeq mean, 4 reps
  MeanFenamidone Gls: 297.391
Gene Gls, vs vehicle, 4 reps
  log2FoldChange Gls: -1.569
Gene Gm5424, DESeq mean, 4 reps
  MeanFenamidone Gm5424: 1293.84
Gene Gm5424, vs vehicle, 4 reps
  log2FoldChange Gm5424: 2.267
Gene Gng2
  MeanFenamidone: 1878.98
  log2FoldChange: -1.047
Gene Gpnmb, DESeq mean, 4 reps
  MeanFenamidone Gpnmb: 552.991
Gene Gpnmb, vs vehicle, 4 reps
  log2FoldChange Gpnmb: 3.791
Gene Gpr22
  MeanFenamidone: 61.8379
  log2FoldChange: -1.6935
Gene Gpr88, DESeq mean, 4 reps
  MeanFenamidone Gpr88: 81.4648
Gene Gpr88, vs vehicle, 4 reps
  log2FoldChange Gpr88: -2.268
Gene Gpx1, DESeq mean, 4 reps
  MeanFenamidone Gpx1: 550.81
Gene Gpx1, vs vehicle, 4 reps
  log2FoldChange Gpx1: 1.571
Gene Grik3, DESeq mean, 4 reps
  MeanFenamidone Grik3: 96.3695
Gene Grik3, vs vehicle, 4 reps
  log2FoldChange Grik3: -2.234
Gene Grin1os, Fenamidone, 4 reps, vs matched vehicle
  MeanFenamidone (DESeq mean normalized counts): 76.6399
Gene Grm5
  MeanFenamidone: 468.182
  log2FoldChange: -1.139
Gene Gss, DESeq mean, 4 reps
  MeanFenamidone Gss: 95.0873
Gene Gss, vs vehicle, 4 reps
  log2FoldChange Gss: 2.127
Gene Gstm1, DESeq mean, 4 reps
  MeanFenamidone Gstm1: 533.415
Gene Gstm1, vs vehicle, 4 reps
  log2FoldChange Gstm1: 2.03
Gene Gtse1
  MeanFenamidone: 113.042
  log2FoldChange: 1.636
Gene Gxylt2, DESeq mean, 4 reps
  MeanFenamidone Gxylt2: 58.8169
Gene Gxylt2, vs vehicle, 4 reps
  log2FoldChange Gxylt2: 2.562
Gene Hbegf, DESeq mean, 4 reps
  MeanFenamidone Hbegf: 726.667
Gene Hbegf, vs vehicle, 4 reps
  log2FoldChange Hbegf: 2.744
Gene Hivep2
  MeanFenamidone: 554.938
  log2FoldChange: -0.989
Gene Hmox1, DESeq mean, 4 reps
  MeanFenamidone Hmox1: 1318.42
Gene Hmox1, vs vehicle, 4 reps
  log2FoldChange Hmox1: 3.72
Gene Hspg2, DESeq mean, 4 reps
  MeanFenamidone Hspg2: 1082.79
Gene Hspg2, vs vehicle, 4 reps
  log2FoldChange Hspg2: 3.326
Gene Icam1, DESeq mean, 4 reps
  MeanFenamidone Icam1: 359.44
Gene Icam1, vs vehicle, 4 reps
  log2FoldChange Icam1: 2.082
Gene Igdcc4, DESeq mean, 4 reps
  MeanFenamidone Igdcc4: 745.33
Gene Igdcc4, vs vehicle, 4 reps
  log2FoldChange Igdcc4: 1.594
Gene Il1rap, DESeq mean, 4 reps
  MeanFenamidone Il1rap: 123.358
Gene Il1rap, vs vehicle, 4 reps
  log2FoldChange Il1rap: 1.873
Gene Inf2, DESeq mean, 4 reps
  MeanFenamidone Inf2: 157.523
Gene Inf2, vs vehicle, 4 reps
  log2FoldChange Inf2: 1.741
Gene Irs1
  MeanFenamidone: 506.425
  log2FoldChange: 1.154
Gene Itga3, DESeq mean, 4 reps
  MeanFenamidone Itga3: 452.545
Gene Itga3, vs vehicle, 4 reps
  log2FoldChange Itga3: 2.403
Gene Itga5, DESeq mean, 4 reps
  MeanFenamidone Itga5: 86.8768
Gene Itga5, vs vehicle, 4 reps
  log2FoldChange Itga5: 3.801
Gene Itga6, DESeq mean, 4 reps
  MeanFenamidone Itga6: 547.54
Gene Itga6, vs vehicle, 4 reps
  log2FoldChange Itga6: 1.506
Gene Itga7, DESeq mean, 4 reps
  MeanFenamidone Itga7: 82.7144
Gene Itga7, vs vehicle, 4 reps
  log2FoldChange Itga7: 2.577
Gene Itgav, DESeq mean, 4 reps
  MeanFenamidone Itgav: 659.409
Gene Itgav, vs vehicle, 4 reps
  log2FoldChange Itgav: 1.938
Gene Itgb1, DESeq mean, 4 reps
  MeanFenamidone Itgb1: 2073.15
Gene Itgb1, vs vehicle, 4 reps
  log2FoldChange Itgb1: 1.665
Gene Kcnc2
  MeanFenamidone: 16.7005
  log2FoldChange: -1.836
Gene Kcnh3, DESeq mean, 4 reps
  MeanFenamidone Kcnh3: 28.6602
Gene Kcnh3, vs vehicle, 4 reps
  log2FoldChange Kcnh3: -2.172
Gene Kcnv1, DESeq mean, 4 reps
  MeanFenamidone Kcnv1: 52.8142
Gene Kcnv1, vs vehicle, 4 reps
  log2FoldChange Kcnv1: -2.08
Gene Kctd12
  MeanFenamidone: 687.782
  log2FoldChange: -1.125
Gene Kdelc2, DESeq mean, 4 reps
  MeanFenamidone Kdelc2: 146.187
Gene Kdelc2, vs vehicle, 4 reps
  log2FoldChange Kdelc2: 1.909
Gene Kif1c, DESeq mean, 4 reps
  MeanFenamidone Kif1c: 782.878
Gene Kif1c, vs vehicle, 4 reps
  log2FoldChange Kif1c: 2.167
